ChEMBL document CHEMBL1201862, “PubChem BioAssay data set” (2004)
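Exposure lasted 48 hours, with cells grown in 96-well plates and compounds tested at five concentrations. GI50 = concentration required for 50% inhibition of growth.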 Calls of active or inactive are those of the source. No stated cut-off is given here; in the data, active = GI50 up to about 1.1 µM and inactive = higher.

Key:
Assay in all cases: NCI anticancer screen, dose series, 48 h
SK-MEL-28 = system: SK-MEL-28
HOP-62 = system: HOP-62
SF-268 = system: SF-268
A498 = system: A498
MDA-N = system: MDA-N
SK-MEL-5 = system: SK-MEL-5
HOP-92 = system: HOP-92
HCC 2998 = system: HCC 2998
MDA-MB-231 = system: MDA-MB-231
HCT-15 = system: HCT-15
A549 = system: A549
PC-3 = system: PC-3
SK-OV-3 = system: SK-OV-3
NCI-H460 = system: NCI-H460
IGROV-1 = system: IGROV-1
UACC-257 = system: UACC-257
RPMI-8226 = system: RPMI-8226
TK-10 = system: TK-10
Malme-3M = system: Malme-3M
OVCAR-4 = system: OVCAR-4

| SMILES | GI50 (SK-MEL-28) | GI50 (HOP-62) | GI50 (SF-268) | GI50 (A498) | GI50 (MDA-N) | GI50 (SK-MEL-5) | GI50 (HOP-92) | GI50 (HCC 2998) | GI50 (MDA-MB-231) | GI50 (HCT-15) [µM] | GI50 (A549) | GI50 (PC-3) | GI50 (SK-OV-3) | GI50 (NCI-H460) | GI50 (IGROV-1) | GI50 (UACC-257) | GI50 (RPMI-8226) | GI50 (TK-10) | GI50 (Malme-3M) | GI50 (OVCAR-4) |
| --- | --- | --- | --- | --- | --- | --- | --- | --- | --- | --- | --- | --- | --- | --- | --- | --- | --- | --- | --- | --- |
| Nc1n[nH]c2nc3ccc(C(F)(F)F)cc3nc12 | 21.1 µM (inactive) | 18.5 µM (inactive) | 33.7 µM (inactive) | 33 µM (inactive) | 35.3 µM (inactive) | 48.9 µM (inactive) | 25.1 µM (inactive) | 37.7 µM (inactive) | 43.6 µM (inactive) | 23.1 | 30.5 µM (inactive) | 25.9 µM (inactive) | 20.5 µM (inactive) | 20.5 µM (inactive) | 21.9 µM (inactive) | 21.8 µM (inactive) | 62.2 µM (inactive) | 32.4 µM (inactive) | 71.6 µM (inactive) | 42.6 µM (inactive) |
| COCC(=O)[C@]1(O)Cc2c(O)c3c(c(O)c2[C@@H](OC2CC(N)C(O)C(C)O2)C1)C(=O)c1c(OC)cccc1C3=O (stereo not given in full) | 0.0935 µM (active) | 0.11 µM (active) | 0.0351 µM (active) | 0.104 µM (active) | 0.0767 µM (active) | 0.0728 µM (active) | 0.13 µM (active) | 0.14 µM (active) | 0.296 µM (active) | 0.137 | 0.219 µM (active) | 0.0791 µM (active) | 0.254 µM (active) | 0.0235 µM (active) | 0.136 µM (active) | 0.299 µM (active) | 0.08 µM (active) | 0.431 µM (active) | 0.105 µM (active) | 0.0826 µM (active) |
| CCCCCCCCCCCC(=O)N(CCCCCCCCC)CC(O)C(O)C(OC1OC(CO)C(O)C(O)C1O)C(O)CO (stereo not given) | 19.2 µM (inactive) | 20.6 µM (inactive) | 19.4 µM (inactive) | 23.1 µM (inactive) | 20.4 µM (inactive) | 17.4 µM (inactive) | 18.6 µM (inactive) | 16.9 µM (inactive) | 26 µM (inactive) | 16.9 | 21 µM (inactive) | 19.2 µM (inactive) | > 10 µM (inactive) | 18.1 µM (inactive) | 18.3 µM (inactive) | 16.9 µM (inactive) | 34 µM (inactive) | 15.2 µM (inactive) | 19.5 µM (inactive) | 21 µM (inactive) |
| COC1OC(COC(=O)c2cc(O)c(O)c(O)c2)C(OC(=O)c2cc(O)c(O)c(O)c2)C(OC(=O)c2cc(O)c(O)c(O)c2)C1OC(=O)c1cc(O)c(O)c(O)c1 (stereo not given) | > 100 µM (inactive) | 7.33 µM (inactive) | 27 µM (inactive) | 1.77 µM (inactive) | 27.8 µM (inactive) | 13.3 µM (inactive) | 74 µM (inactive) | 58.2 µM (inactive) | 26.2 µM (inactive) | 47.2 | 33 µM (inactive) | 50.7 µM (inactive) | 4.78 µM (inactive) | 9.2 µM (inactive) | 27.4 µM (inactive) | > 100 µM (inactive) | 28.3 µM (inactive) | > 100 µM (inactive) | 27.9 µM (inactive) | 41.3 µM (inactive) |
| COc1ccc(C(=O)CCN(C)C)c2ccccc12 | 24.8 µM (inactive) | 24.1 µM (inactive) | 21.9 µM (inactive) | 27.4 µM (inactive) | 21.1 µM (inactive) | > 56.8 µM (inactive) | 19.5 µM (inactive) | 18 µM (inactive) | 19.1 µM (inactive) | 21.4 | > 58.2 µM (inactive) | 17.6 µM (inactive) | > 100 µM (inactive) | > 59.8 µM (inactive) | 19.4 µM (inactive) | > 40.9 µM (inactive) | 0.504 µM (active) | > 38.3 µM (inactive) | 17.8 µM (inactive) | 24.3 µM (inactive) |
